Laboratory results published in patent publication US12533343B2, “Method for preparing (−)-cibenzoline succinate” (CELLTRION, INC., priority 2018, dated 2026).

Columns and labels:
Type in all cases: physicochemical
[1] = Hygroscopicity; details: 25±1° C., 24 hours, 80±2% RH
From the text: The hygroscopicity was to describe the water vapor uptake behavior of solid by mass changes.
The results of the hygroscopicity study shall be interpreted based on the criteria in Table 11 (ref. EUROPEAN PHARMACOPOEIA 9.0 volume 1 5.11. characters section in monographs).

[2] = Particle size analysis
From the text: The powder sample was dispersed with a dispersion pressure of 2 bar.
The accompanying Table 9 (ref. 2019 USP 42 NF 37 Volume 4 physical tests <811> powder fineness) indicates particle size distribution associated with corresponding values.

[3] = Long-term storage stability test; details: for Assay by potentiometry (on dried basis) / Chiral purity by HPLC S-Isomer Content / Identification by IR / Loss on drying at 105° C. for 3 hours / Related substance by HPLC Single maximum unknown impurity / Related substance by HPLC Total impurity: 25±2° C., RH 60±5%
Description: And related substances was measured by HPLC under below conditions.
(§1) <Packing details>—Primary packing: (−)-Cibenzoline succinic acid salt obtained by Example 4 shall be packed in transparent LDPE bag, twist and tie with Strip seal. • Secondary packing: The above bag shall be kept in Black color LDPE bag, twist and tie with Strip seal. • Tertiary packing: The above bag shall be kept Triple laminated aluminum bag with heat seal. Keep this bag in HDPE drum and close with lid.

[4] = Accelerated stability test; details: for Assay by potentiometry (on dried basis) / Chiral purity by HPLC S-Isomer Content / Identification by IR / Loss on drying at 105° C. for 3 hours / Related substance by HPLC Single maximum unknown impurity / Related substance by HPLC Total impurity: 40±2° C., RH 75±5%
From the text: as §1

[5] = powder dispersed at 2 bar, listed as (−)-Cibenzoline succinic acid salt

## O=C(O)CCC(=O)O.c1ccc(C2(c3ccccc3)C[C@@H]2C2=NCCN2)cc1 [Example 4, (−)-Cibenzoline succinic acid salt]
[1]
  Mass change: 0.01%
[1]; Ph. Eur. criteria
  Hygroscopicity evaluation: Non hygroscopic
[2]; USP <811> powder fineness
  Classification (particle size): Very fine
[2]; powder dispersed at 2 bar
  d10: 15.2 μm
  d50: 104 μm
  d90: 265 μm
[2]; [5]
  d50: 104.0 μm
  d90: 265.0 μm
[3]; 1-month
  Assay by potentiometry (on dried basis): 99.9 % w/w
  Chiral purity by HPLC S-Isomer Content: 100.0 % Area normalization
  Identification by IR: Complies
  Loss on drying at 105° C. for 3 hours: 0.04 % w/w
  Related substance by HPLC Single maximum unknown impurity: 0.01 % w/w
  Related substance by HPLC Total impurity: 0.01 % w/w
[3]; 2-month
  Assay by potentiometry (on dried basis): 100.1 % w/w
  Chiral purity by HPLC S-Isomer Content: 100.0 % Area normalization
  Identification by IR: Complies
  Loss on drying at 105° C. for 3 hours: 0.07 % w/w
  Related substance by HPLC Single maximum unknown impurity: 0.01 % w/w
  Related substance by HPLC Total impurity: 0.01 % w/w
[3]; 3-month
  Assay by potentiometry (on dried basis): 100.2 % w/w
  Chiral purity by HPLC S-Isomer Content: 100.0 % Area normalization
  Identification by IR: Complies
  Loss on drying at 105° C. for 3 hours: 0.14 % w/w
[3]; 6-month
  Assay by potentiometry (on dried basis): 100.2 % w/w
  Chiral purity by HPLC S-Isomer Content: 100.0 % Area normalization
  Identification by IR: Complies
  Loss on drying at 105° C. for 3 hours: 0.18 % w/w
[3]; Initial
  Assay by potentiometry (on dried basis): 100.1 % w/w
  Chiral purity by HPLC S-Isomer Content: 100.0 % Area normalization
  Identification by IR: Complies
  Loss on drying at 105° C. for 3 hours: 0.11 % w/w
  Related substance by HPLC Single maximum unknown impurity: 0.01 % w/w
  Related substance by HPLC Total impurity: 0.01 % w/w
[3]; long-term storage conditions
  change of (S)-form to (R)-form: not changed to (R)-form
  stability conclusion: excellent stability
[3]; six months, long-term storage conditions
  white crystalline powder form over storage: uniformly maintained
[4]; 1-month
  Assay by potentiometry (on dried basis): 100.1 % w/w
  Chiral purity by HPLC S-Isomer Content: 100.0 % Area normalization
  Identification by IR: Complies
  Loss on drying at 105° C. for 3 hours: 0.15 % w/w
  Related substance by HPLC Single maximum unknown impurity: 0.01 % w/w
  Related substance by HPLC Total impurity: 0.01 % w/w
[4]; 2-month
  Assay by potentiometry (on dried basis): 100.3 % w/w
  Chiral purity by HPLC S-Isomer Content: 100.0 % Area normalization
  Identification by IR: Complies
  Loss on drying at 105° C. for 3 hours: 0.12 % w/w
[4]; 3-month
  Assay by potentiometry (on dried basis): 100.1 % w/w
  Chiral purity by HPLC S-Isomer Content: 100.0 % Area normalization
  Identification by IR: Complies
  Loss on drying at 105° C. for 3 hours: 0.09 % w/w
[4]; 6-month
  Assay by potentiometry (on dried basis): 99.6 % w/w
  Chiral purity by HPLC S-Isomer Content: 100.0 % Area normalization
  Identification by IR: Complies
  Loss on drying at 105° C. for 3 hours: 0.10 % w/w
[4]; Initial
  Assay by potentiometry (on dried basis): 100.1 % w/w
  Chiral purity by HPLC S-Isomer Content: 100.0 % Area normalization
  Identification by IR: Complies
  Loss on drying at 105° C. for 3 hours: 0.11 % w/w
  Related substance by HPLC Single maximum unknown impurity: 0.01 % w/w
  Related substance by HPLC Total impurity: 0.01 % w/w
[4]; accelerated conditions
  stability conclusion: excellent stability
[4]; accelerated stability test section
  change of (S)-form to (R)-form: not changed to (R)-form
[4]; six months, accelerated conditions
  white crystalline powder form over storage: uniformly maintained
